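The compound was tested at five concentrations on cells cultured in 96-well plates, with a 48-hour exposure period. The concentration for 50% growth inhibition is given as GI50. At the TGI there is no net growth.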
Legend:
Experiment in all cases: NCI anticancer screen, dose series, 48 h
NCI-H23 lung = system: NCI-H23 lung
SK-OV-3 ovarian = system: SK-OV-3 ovarian
UO-31 renal = system: UO-31 renal
ACHN renal = system: ACHN renal
OVCAR-3 ovarian = system: OVCAR-3 ovarian
SK-MEL-28 melanoma = system: SK-MEL-28 melanoma
SNB-75 CNS = system: SNB-75 CNS
UACC-62 melanoma = system: UACC-62 melanoma
786-0 renal = system: 786-0 renal
NCI-H226 lung = system: NCI-H226 lung

SMILES	TGI (NCI-H23 lung)	TGI (SK-OV-3 ovarian)	TGI (UO-31 renal)	TGI (ACHN renal)	TGI (OVCAR-3 ovarian)	TGI (SK-MEL-28 melanoma)	TGI (SNB-75 CNS)	TGI (UACC-62 melanoma)	TGI (786-0 renal)	GI50 (NCI-H23 lung)	GI50 (SK-OV-3 ovarian)	GI50 (UO-31 renal)	GI50 (ACHN renal)	GI50 (OVCAR-3 ovarian)	GI50 (SK-MEL-28 melanoma)	GI50 (SNB-75 CNS)	GI50 (UACC-62 melanoma)	GI50 (786-0 renal)	GI50 (NCI-H226 lung)	TGI (NCI-H226 lung)
Cc1ccc(SSCCCS(=O)O)cc1	> 100 µM	85.9 µM	> 100 µM	> 100 µM	> 100 µM	> 100 µM	79.5 µM	> 100 µM	> 100 µM											
COC(=O)/C(C#N)=C\N1CCN(C(=O)c2ccco2)C1=S	27.7 µM	> 100 µM	21.3 µM	23.3 µM	33.6 µM	79.6 µM	> 100 µM	27.2 µM	21.7 µM	13.2 µM	28.2 µM	5.19 µM	4.81 µM	4.92 µM	13 µM	15.5 µM	10.7 µM	6.25 µM		
CCN1CCN(CCOc2ccc(CNc3ccc4nc(CCC5CCCCC5)[nH]c4c3)cc2)CC1	6.94 µM	5.16 µM	2.79 µM	7.96 µM	4.34 µM		4.07 µM	3.52 µM	3.39 µM	2.38 µM	2.28 µM	1.42 µM	2.79 µM	1.89 µM		1.66 µM	1.93 µM	1.57 µM	1.99 µM	4.94 µM
CC1=C(C(=O)Nc2cccc(C(F)(F)F)c2)C(c2ccc(O)cc2)C(C(=O)Nc2cccc(C(F)(F)F)c2)=C(C)N1	35.8 µM	83.4 µM	53.5 µM	96.2 µM	31.8 µM	47.7 µM	63.9 µM		35.8 µM											44.3 µM
Cc1ccc2nc3c(Cl)cc(=O)cc-3sc2c1			> 100 µM	54.4 µM	10.6 µM	81.4 µM	57.7 µM	31.8 µM	35.7 µM											79.1 µM
CCCCCCCCCCCCCCCCOC(=O)C(C(=O)OCCCCCCCCCCCCCCCC)[N+](C)(C)CCOC(C)=O	30.3 µM	34.8 µM	34.2 µM	34.9 µM	32.6 µM	40.8 µM	35.6 µM	45.7 µM	32.7 µM											42.1 µM
CCSC1(SCC)CCN(C=NC(C)(C)C)C1	> 100 µM	> 100 µM	> 100 µM	> 100 µM	> 100 µM	> 100 µM	> 100 µM	> 100 µM	> 100 µM											> 100 µM
O=C(Nc1cccc(Cl)c1)Nc1cccc(Cl)c1		> 100 µM	> 100 µM		> 100 µM	> 100 µM	44.3 µM	> 100 µM	> 100 µM		> 100 µM	> 26 µM		2.92 µM	> 100 µM	2.49 µM	3.69 µM	36.7 µM	> 100 µM	> 100 µM
COc1ccc(Nc2c3ccccc3nc3c2c2ccccc2n3C)cc1	> 100 µM		> 100 µM	> 100 µM	> 100 µM	> 100 µM	> 100 µM	41.5 µM	> 100 µM	34.8 µM		> 100 µM	21.6 µM	23.5 µM	> 100 µM	> 100 µM	11.4 µM	40.6 µM	27.6 µM	> 100 µM
COC(=O)[C@]12CC[C@@H](C)[C@H](C)[C@@H]1C1=CC[C@@H]3[C@@]4(C)C[C@@H](OC(=O)c5ccco5)[C@H](O)[C@@](C)(CO)[C@@H]4[C@H](O)C[C@@]3(C)[C@]1(C)CC2	6.66 µM	11.9 µM	7.42 µM	7.69 µM	4.73 µM	4.71 µM	11.7 µM		4.46 µM	2.42 µM	3.95 µM	2.02 µM	2.76 µM	2.19 µM	2.17 µM	2.38 µM		2.1 µM	2.3 µM	6.05 µM
COc1ccc(/C=C2\N=C(c3ccccc3)OC2=O)c(OCc2ccccc2)c1			> 100 µM	> 100 µM	48.4 µM	> 100 µM		50 µM	34.8 µM											> 100 µM
O=[N+]([O-])c1cccc(C2SCc3nc4ccccc4n32)c1 (stereo unspecified)	> 100 µM	> 100 µM	> 100 µM	> 100 µM		> 100 µM		> 100 µM	> 100 µM											> 100 µM
C=C1C(=O)OC2CCCCC3OC3C12 (stereo unspecified)	32.6 µM	32 µM	28.8 µM	23 µM	26.5 µM	23.9 µM	59.1 µM	13.7 µM	19.8 µM											
Cc1cc2c3ccccc3n(C)c2c2c1C(=O)c1ccccc1C2=O	44 µM	61.7 µM	27.4 µM		54.1 µM	65 µM	> 100 µM	57.3 µM	34.3 µM											30.5 µM
O=C(CC(=O)N1N=C(n2ccc3ccccc32)CC1c1ccccc1)Nc1cccc(Cl)c1 (stereo unspecified)	> 100 µM	> 100 µM	> 100 µM	> 100 µM	> 100 µM	> 100 µM	> 100 µM	> 100 µM	> 100 µM											
Cc1ccc(/C=C(\C#N)n2nnc3cc(Cl)c(Cl)cc32)cc1	> 100 µM	91.5 µM	3.35 µM	3.63 µM	12.8 µM	4.77 µM	9.74 µM		6 µM	3.36 µM	3.69 µM	1.59 µM	1.8 µM	2.93 µM	2.05 µM	1.57 µM		2.46 µM	2.88 µM	> 100 µM
CN(C)c1cccc(-c2cc(=O)c3ccccc3[nH]2)c1	> 100 µM	> 100 µM	> 100 µM	> 100 µM	> 100 µM	> 100 µM		> 100 µM	> 100 µM					42.1 µM					29.4 µM	66.9 µM
Cc1cc(C)nc(NS(=O)(=O)c2ccc(Nc3c4ccccc4nc4c(C(=O)NCCN(C)C)ccc(Cl)c34)cc2)n1	11.7 µM		4.62 µM	8.97 µM	23 µM	17.9 µM	11 µM	3.59 µM	14.7 µM											2.77 µM
O=C1CCCCC/C=C2/CC[C@H](Sc3ccccc3)[C@@H]12	> 100 µM	> 100 µM	> 100 µM	> 100 µM		> 100 µM	> 100 µM	> 100 µM	> 100 µM											> 100 µM

SMILES	TGI (NCI-H23 lung)	TGI (SK-OV-3 ovarian)	TGI (UO-31 renal)	TGI (ACHN renal)	TGI (OVCAR-3 ovarian)	TGI (SK-MEL-28 melanoma)	TGI (SNB-75 CNS)	TGI (UACC-62 melanoma)	TGI (786-0 renal)	GI50 (NCI-H23 lung)	GI50 (SK-OV-3 ovarian)	GI50 (UO-31 renal)	GI50 (ACHN renal)	GI50 (OVCAR-3 ovarian)	GI50 (SK-MEL-28 melanoma)	GI50 (SNB-75 CNS)	GI50 (UACC-62 melanoma)	GI50 (786-0 renal)	GI50 (NCI-H226 lung)	TGI (NCI-H226 lung)
NC(=S)N/N=C(/CC(=O)c1ccc([N+](=O)[O-])cc1)C(=O)Nc1ncc([N+](=O)[O-])s1	> 100 µM		> 100 µM	> 100 µM	> 100 µM	> 100 µM	> 100 µM	> 100 µM	> 100 µM											> 100 µM
COC1=C(OC)C(=O)C(/C=C(\C)C(=O)O)=C(C)C1=O	> 100 µM	> 100 µM	> 100 µM	> 100 µM	> 100 µM	> 100 µM	> 100 µM	> 100 µM	> 100 µM	> 100 µM	> 100 µM	> 100 µM	> 100 µM	> 100 µM	> 100 µM	49.1 µM	> 100 µM	> 100 µM		
CN(C)CCNC(=O)c1cccc2nc3ccc4ccccc4c3nc12	0.221 µM	2.06 µM	0.433 µM		0.53 µM	1.05 µM	0.517 µM	0.256 µM	1.99 µM											0.513 µM
CC(=O)CC(=O)CCCC(=O)Nc1ccc(Cl)cc1C	> 100 µM	> 100 µM	> 100 µM	> 100 µM	> 100 µM			> 100 µM	> 100 µM											> 100 µM
CC(=O)OC1(C#N)CC2OC1C1C2N1C(=O)c1ccccc1 (stereo unspecified)	> 100 µM	> 100 µM	> 100 µM	> 100 µM		> 100 µM	> 100 µM	> 100 µM	> 100 µM											> 100 µM
CCOC(=O)CC(=O)ON(C)C(=O)Cc1ccccc1	> 100 µM	> 100 µM	> 100 µM	> 100 µM	> 100 µM			> 100 µM	> 100 µM											> 100 µM
CCOC(=O)C1=C(Nc2ccccc2)OC/C1=N\NC(=O)Cc1ccccc1	> 50 µM	> 50 µM	> 50 µM		> 50 µM	> 50 µM	> 50 µM	> 50 µM	> 50 µM											> 50 µM
c1cncc(CNc2ccccc2-c2nnc(Nc3ccc4c(c3)OCO4)o2)c1	> 100 µM	7.81 µM	> 100 µM	> 100 µM	0.0866 µM	> 100 µM	> 100 µM	> 100 µM	> 90.4 µM	0.0662 µM	0.0914 µM	0.31 µM	0.717 µM	0.0303 µM	0.0654 µM	0.0246 µM	0.0542 µM	0.14 µM		
O=C(N[C@H](c1ccc(Cl)c(Cl)c1)C1CNC1)c1ccc2cnccc2c1	19.6 µM	13.1 µM		18.9 µM	23.9 µM	18.6 µM	3.68 µM	19.1 µM	11.5 µM	5.83 µM	3.26 µM		6.11 µM	11.5 µM	5.5 µM	0.405 µM	5.39 µM	1.78 µM	4.3 µM	19.7 µM
O=C(c1cc2ccccc2[nH]1)C(O)(c1cc2ccccc2[nH]1)c1cc2ccccc2[nH]1	> 246 µM	> 246 µM		> 246 µM	> 246 µM	> 246 µM		> 246 µM	> 246 µM											> 246 µM
O=C(NCCCN1CCN(CCCNC(=O)c2cnc3ccccc3n2)CC1)c1cnc2ccccc2n1		> 100 µM	> 100 µM	> 100 µM	> 100 µM	> 100 µM	> 100 µM	> 100 µM	> 100 µM											> 100 µM
Fc1ccc(-c2nc(-c3nc4ccc(Cl)cc4[nH]3)cc3c2[nH]c2ccccc23)cc1	21.1 µM	24.6 µM	10.7 µM	13.7 µM	6.87 µM	14.9 µM		6.9 µM	18.7 µM	3.66 µM	7.43 µM	2.4 µM	3.06 µM	2.74 µM	4.25 µM		2.28 µM	5.71 µM	3.34 µM	15.5 µM
CCc1cccc(C(C)CC)c1N=C(NC(=O)c1ccccc1C(=O)NC(=Nc1c(CC)cccc1C(C)CC)SC)SC (stereo unspecified)	> 100 µM	> 100 µM	> 100 µM	> 100 µM	> 100 µM	> 100 µM		53.5 µM	> 100 µM											57.1 µM
C=C1CC[C@@H]2C(C)(C)[C@@H](O)CC[C@@]2(C)[C@@H]1COc1ccc2ccc(=O)oc2c1	33.8 µM		22.9 µM	29.2 µM	29.1 µM	30.1 µM	32.1 µM	23.7 µM	30.6 µM	13.8 µM		10.2 µM	14.3 µM	13 µM	15.1 µM	10.9 µM	10.2 µM	14.8 µM		
Cc1ccc(-n2c3c(c4c(CN5CCCCC5)c(O)ccc42)CCc2ccccc2C3=O)cc1	> 100 µM	> 100 µM	> 100 µM	> 100 µM	> 100 µM			> 100 µM	> 100 µM	> 100 µM	> 100 µM	> 100 µM	> 100 µM	> 100 µM			97.4 µM	33.5 µM	> 100 µM	> 100 µM
Cn1cc(-c2csc(-c3c[nH]c4ncccc34)n2)c2cc(Br)cnc21	> 100 µM	> 100 µM		> 100 µM	> 100 µM		7.35 µM	> 100 µM	> 100 µM	2.8 µM	3.25 µM		2.35 µM	2.91 µM		2.18 µM	3.47 µM	9.65 µM	1.97 µM	> 100 µM
CC(C)c1cc(C(C)C)c(S(=O)(=O)NN)c(C(C)C)c1	> 100 µM			> 100 µM	> 100 µM	> 100 µM	> 100 µM	> 100 µM	> 100 µM											
NC(=O)c1ccccc1NC(=O)C(=O)C(C(=O)c1ccc2ccccc2c1)C1OC(=O)c2ccccc21 (stereo unspecified)		75.2 µM	29.4 µM	> 100 µM	39.6 µM		45.2 µM	22.5 µM	19.9 µM											9.88 µM

Reference: PubChem BioAssay (NCI)
